The compounds below were run on IL-2 (assay: PHA-IL2 (cell activation and cytokine analysis)). Conditions: 50% inhibition concentration class.
Type: cell-based
Protocol: Cells to be tested may include, but are not limited to, a) Jurkat (a transformed human T cell leukemia), b) whole blood isolated from human or rodent sources, c) peripheral blood mononuclear cells (PBMC) freshly isolated from human or rodent whole blood, or d) purified fractions of PBMC (e.g., CD4 T cells). Cells are plated in 96-well plates at a final density of 1.0-2.0×10^6 cells/ml in 150 ul of assay medium (RPMI+0.5% fetal calf serum). Test compounds are included at a final concentration of ≤20 uM and generally pre-incubated with cells for 30 minutes prior to stimulation. An appropriate stimulus is added, including but not limited to, a) phytohemagglutinin (PHA), b) phorbol myristate acetate (PMA) and ionomycin, or c) stimulatory antibodies to the T cell receptor (TCR) complex (e.g., anti-CD3ε) and CD28. Cell cultures are stimulated for 24-48 hours in a humidified incubator (37 degrees C./5% CO2). A fraction of the culture supernatant is than harvested from each well and assayed for the presence of appropriate cytokine using standard ELISA. Cytokines to be analyzed may include IL-2, IL-4, IL-10, IL-17, IL-22, IFNγ, and/or TNFα. If required, the number of cytokine producing cells can be determined using intracellular staining and flow cytometry. […]

Row | Compound | IC50 [µM]
1 | CN(C)C(=O)c1ccc(OCC(=O)N2CCC(CCc3ccccc3)CC2)c(-c2ccc(C#N)cc2)c1 [Compound 316] | 1 to 10
2 | O=C(COc1ccccc1-c1ccc(F)cc1)N1CCC(CCc2ccc3c(c2)OCCO3)CC1 [Compound 294] | 1 to 10
3 | CCN(CC)C(=O)c1cccc(-c2ccccc2OCC(=O)N2CCC(CCc3ccc4c(c3)OCO4)CC2)c1 [Compound 185] | 10 to 50
4 | CC1Oc2ccc(CCC3CCN(C(=O)COc4ccccc4-c4ccc(Cl)nc4)CC3)cc2OC1C (stereo not shown) [Compound 265] | < 1
5 | N#Cc1ccc(-c2cnccc2OCC(=O)N2CCC(CCc3ccc4c(c3)OCO4)CC2)cc1 [Compound 327] | 10 to 50
6 | Cc1cc2c(cc1CCC1CCN(C(=O)COc3ccccc3-c3ccc(C#N)cc3)CC1)OCO2 [Compound 298] | < 1
7 | Cc1cccc(-c2ccccc2)c1OC(C)C(=O)N1CCC(CCc2cc(F)cc(F)c2)CC1 (stereo not shown) [Compound 229] | 1 to 10
8 | CCc1ccc(OCC(=O)N2CCC(CCc3ccc4c(c3)OCO4)CC2)c(-c2ccccc2)c1 [Compound 276] | < 1
9 | COc1cccc(CCC2CCN(C(=O)CSc3ccccc3-c3ccccc3)CC2)c1 [Compound 287] | 1 to 10
10 | Cc1cccc(-c2ccccc2OCC(=O)N2CCC(CCc3ccc4c(c3)OCO4)CC2)c1 [Compound 167] | 1 to 10
11 | CCOC(=O)c1cccc(-c2ccccc2OCC(=O)N2CCC(CCc3ccc4c(c3)OCO4)CC2)c1 [Compound 159] | 1 to 10
12 | COCc1ccc(CCC2CCN(C(=O)COc3ccccc3-c3ccc(F)cc3O)CC2)cc1 [Compound 308] | < 1
13 | N#Cc1ccc(-c2ccccc2OCC(=O)N2CCC(CCc3ccc4c(c3)OCO4)CC2)cn1 [Compound 289] | < 1
14 | CCCOc1ccc(CCC2CCN(C(=O)COc3ccccc3-c3ccc(C#N)cc3)CC2)cc1OCCC [Compound 300] | < 1
15 | Cc1ccccc1-c1ccccc1OCC(=O)N1CCC(CCc2ccc3c(c2)OCO3)CC1 [Compound 155] | 1 to 10
16 | CC(C)NC(=O)c1ccc(OCC(=O)N2CCC(CCc3ccccc3)CC2)c(-c2ccc(C#N)cc2)c1 [Compound 317] | < 1
17 | Cc1cc(F)ccc1-c1ccccc1OCC(=O)N1CCC(CCc2ccc3c(c2)OCO3)CC1 [Compound 262] | 1 to 10
18 | C=C(C)c1cccc(-c2ccccc2OCC(=O)N2CCC(CCc3ccc4c(c3)OCO4)CC2)c1 [Compound 205] | 1 to 10
19 | CC1Oc2ccc(CCC3CCN(C(=O)COc4ccccc4-c4ccccc4O)CC3)cc2OC1C (stereo not shown) [Compound 278] | < 1
20 | CCOc1ccc(CCC2CCN(C(=O)COc3ccccc3-c3ccc(C(=O)c4ccccc4)cc3)CC2)cc1 [Compound 311] | < 1
21 | O=C(COc1ccccc1-c1ccccc1)N1CCC(CCc2ccc3c(c2)OCCCO3)CC1 [Compound 208] | < 1

Row | Compound | IC50 [µM]
22 | O=C(COc1ccccc1-c1ccc(F)cc1)N1CCC(CCc2ccc(O)cc2)CC1 [Compound 280] | < 1
23 | O=C(COc1ccccc1-c1ccccc1Cl)N1CCC(CCc2ccc3c(c2)OCO3)CC1 [Compound 165] | < 1
24 | Cc1cc(F)ncc1-c1ccccc1OCC(=O)N1CCC(CCc2ccc3c(c2)OCO3)CC1 [Compound 248] | 10 to 50
25 | N#Cc1ccc(OCC(=O)N2CCC(CCc3ccccc3)CC2)c(-c2ccc(F)cc2O)c1 [Compound 345] | < 1
26 | N#Cc1ccc(-c2ccccc2OCC(=O)N2CCC(CCc3ccc4c(c3)OCCCO4)CC2)cc1 [Compound 231] | < 1
27 | N#Cc1ccc(-c2ncccc2OCC(=O)N2CCC(CCc3ccc4c(c3)OCO4)CC2)cc1 [Compound 323] | 1 to 10
28 | O=C(O)c1cncc(-c2ccccc2OCC(=O)N2CCC(CCc3ccc4c(c3)OCO4)CC2)c1 [Compound 196] | 10 to 50
29 | O=C(COc1ccccc1-c1cccc(OC(F)(F)F)c1)N1CCC(CCc2ccc3c(c2)OCO3)CC1 [Compound 179] | 1 to 10
30 | COc1ccc(CCC2(O)CCN(C(=O)COc3ccccc3-c3ccccc3)CC2)cc1 [Compound 175] | 10 to 50
31 | CC1Oc2ccc(CCC3CCN(C(=O)COc4ccccc4-c4ccc(F)cc4)CC3)cc2OC1C (stereo not shown) [Compound 264] | < 1
32 | O=C(COc1ccncc1-c1ccc(F)cc1O)N1CCC(CCc2ccc3c(c2)OCO3)CC1 [Compound 331] | 10 to 50
33 | COc1ccc(-c2ccccc2OCC(=O)N2CCC(CCc3ccc4c(c3)OCO4)CC2)cn1 [Compound 199] | < 1
34 | O=C(COc1cccnc1-c1ccc(F)nc1)N1CCC(CCc2ccc3c(c2)OCCCO3)CC1 [Compound 339] | 1 to 10
35 | O=C(COc1ccccc1-c1ccc(F)nc1)N1CCC(CCc2ccc3c(c2)OCO3)CC1 [Compound 193] | < 1
36 | O=C(COc1ccccc1-c1ccc(Cl)cc1Cl)N1CCC(CCc2ccc3c(c2)OCO3)CC1 [Compound 240] | 1 to 10
37 | CC1Oc2ccc(CCC3CCN(C(=O)COc4ccccc4-c4ccccc4)CC3)cc2OC1C (stereo not shown) [Compound 256] | < 1
38 | O=C(COc1cccnc1-c1ccc(F)cc1O)N1CCC(CCc2ccc3c(c2)OCCCO3)CC1 [Compound 338] | 1 to 10
39 | N#Cc1ccc(-c2ccccc2OCC(=O)N2CCC(CCc3ccc(O)cc3)CC2)cc1 [Compound 279] | < 1
40 | CC(C)Oc1ccc(CCC2CCN(C(=O)COc3ccccc3-c3ccc(C#N)cc3)CC2)cc1OC(C)C [Compound 301] | < 1
41 | CCc1ccc(OCC(=O)N2CCC(CCc3ccc4c(c3)OCO4)CC2)c(-c2ccc(C#N)cc2)c1 [Compound 274] | 1 to 10

Results, then the compound that gave them:

Row | IC50 [µM] | Compound
42 | < 1 | CC(C)Oc1cccc(CCC2CCN(C(=O)COc3cccnc3-c3ccc(C#N)cc3)CC2)c1 [Compound 411]
43 | 1 to 10 | O=C(COc1cccnc1-c1ccc(F)cc1O)N1CCC(CCc2cccc(OCCN3CCCCC3)c2)CC1 [Compound 360]
44 | < 1 | N#Cc1ccc(OCC(=O)N2CCC(CCc3cccc(O)c3)CC2)c(-c2ccc(C(=O)c3ccccc3)cc2)c1 [Compound 417]
45 | 1 to 10 | COc1cccc(CCC2CCN(C(=O)COc3cccnc3-c3ccc(C#N)cc3)CC2)c1 [Compound 361]
46 | < 1 | N#Cc1ccc(-c2cc(C#N)ccc2OCC(=O)N2CCC(CCc3cccc(OC(F)F)c3)CC2)cc1 [Compound 436]
47 | 1 to 10 | COc1cccc(CCC2CCN(C(=O)COc3ccc(S(N)(=O)=O)cc3-c3ccc(F)cc3O)CC2)c1 [Compound 386]
48 | < 1 | CC(C)Oc1cccc(CCC2CCN(C(=O)COc3ccccc3-c3cc(C#N)ccc3OCc3ccccc3)CC2)c1 [Compound 440]
49 | < 1 | Cc1nc2cc(-c3ccccc3OCC(=O)N3CCC(CCc4ccc(OC(C)C)cc4)CC3)ccc2[nH]1 [Compound 433]
50 | < 1 | C#CCOc1cccc(CCC2CCN(C(=O)COc3ccc(C#N)cc3-c3ccc(C(=O)c4ccccc4)cc3)CC2)c1 [Compound 418]
51 | < 1 | N#Cc1ccc(-c2cc(C#N)ccc2OCC(=O)N2CCC(CCc3ccc4c(c3)OCO4)CC2)cc1 [Compound 420]
52 | 1 to 10 | CC(C)NS(=O)(=O)c1ccc(OCC(=O)N2CCC(CCc3ccc4c(c3)OCO4)CC2)c(-c2ccc(F)cc2O)c1 [Compound 390]
53 | < 1 | N#Cc1ccc(-c2ccccc2OCC(=O)N2CCC(CCc3cccc(OC4CC4)c3)CC2)cc1 [Compound 406]
54 | 1 to 10 | O=C(COc1cccnc1-c1ccc(F)cc1O)N1CCC(CCc2ccc(OCCN3CCOCC3)cc2)CC1 [Compound 358]
55 | < 1 | COc1cccc(CCC2CCN(C(=O)COc3cccnc3-c3ccc(F)cc3O)CC2)c1 [Compound 350]
56 | < 1 | N#Cc1ccc(-c2ccccc2C2CC2C(=O)N2CCC(CCc3ccccc3)CC2)cc1 (stereo not shown) [Compound 404]
57 | 1 to 10 | CC(C)Oc1cccc(CCC2CCN(C(=O)COc3ccccc3-c3ccc(C(=O)c4ccc(O)cc4)cc3)CC2)c1 [Compound 421]
58 | < 1 | CC(C)Oc1cccc(CCC2CCN(C(=O)COc3ccccc3-c3ccc4[nH]cnc4c3)CC2)c1 [Compound 398]
59 | 1 to 10 | COc1cccc(CCC2CCN(C(=O)COc3ccc(S(N)(=O)=O)cc3-c3ccc(C#N)cc3)CC2)c1 [Compound 385]
60 | < 1 | N#Cc1ccc(OCC(=O)N2CCC(CCc3ccc4c(c3)OCO4)CC2)c(-c2ccc(F)cc2O)c1 [Compound 346]
61 | 1 to 10 | C#CCOc1ccc(C(=O)c2ccc(-c3ccccc3OCC(=O)N3CCC(CCc4cccc(OC(C)C)c4)CC3)cc2)cc1 [Compound 419]
62 | < 1 | O=C(COc1ccccc1-c1ccc(F)cc1O)N1CCC(CCc2ccccc2)CC1 [Compound 348]
63 | 1 to 10 | O=C(COc1ccccc1-c1ccc2[nH]cnc2c1)N1CCC(CCc2ccc(O)cc2)CC1 [Compound 383]
64 | < 1 | CC(C)Oc1cccc(CCC2CCN(C(=O)COc3ccc(C#N)cc3-c3ccccc3O)CC2)c1 [Compound 414]
65 | < 1 | CC(C)Oc1cccc(CCC2CCN(C(=O)COc3cccnc3-c3ccc(F)cc3O)CC2)c1 [Compound 408]
66 | 1 to 10 | O=C(COc1cccnc1-c1ccc2[nH]ncc2c1)N1CCC(CCc2ccncc2)CC1 [Compound 396]
67 | < 1 | N#Cc1ccc(OCC(=O)N2CCC(CCc3ccc(OCCN4CCOCC4)cc3)CC2)c(-c2ccc(F)cc2O)c1 [Compound 357]
68 | < 1 | Cc1ccc(-c2ccccc2OCC(=O)N2CCC(CCc3ccccc3)CC2)nn1 [Compound 422]
69 | 1 to 10 | COc1cccc(CCC2CCN(C(=O)COc3cccnc3-c3ccc4[nH]ccc4c3)CC2)c1 [Compound 377]
70 | < 1 | N#Cc1ccc(OCC(=O)N2CCC(CCc3cccc4ccccc34)CC2)c(-c2ccc(F)cc2O)c1 [Compound 401]
